Patent publication US7638145B2, “Cultivated agarwood” (Regents of the University of Minnesota, priority 2001, dated 2009)

Assays:
Type in all cases: in vivo
[1] = test system: Aquilaria trees; experiment: Drill wounds treated with different compounds to stimulate agarwood production (Example 5); design: Area of discoloration: unit not given here; details: for effect on area of discoloration (in words): Example 5, at the concentrations tested; for Area of discoloration: approx 0.1-0.2 g per drill wound; for microscopic observations of cells around treated wounds: Example 5; for agarwood induction versus control wounds (in words): Example 5 conclusion
Description: To test if different types of compounds could stimulate agarwood production, ⅝ inch drill wounds were made approximately 5 cm into the main trunk of young plantation trees and different materials used to treat the drill wounds. Chemicals used were from Sigma Chemicals Inc. St. Louis, Mo. or Mallinckrodt Inc. Paris, Ky. One drill wound per tree received no treatment and others received one of the following treatments:
Chitosan—purified chitin approximately 0.2 g of chitin was added per wound
Formic acid—approximately 0.1 g of formic acid was added per wound
Sodium chloride—approximately 0.2 g added per wound
Cellobiose—approximately 0.2 grams added per wound
Lime—approximately 0.1 g calcium carbonate added per wound
Trees were harvested after 12, 18 and 21 months.

[2] = test system: Aquilaria trees; experiment: Wound types and treatments on plantation trees, Phu Quoc Island, image analyzer area (Example 8); details: for effect on area of discoloration and agarwood resin (in words): Example 8 conclusion; for Area of discoloration/resin: after 15 months, longitudinal plane, mean of 8 wounds, approx 0.3 g of agent mixed with sterile Aquilaria sawdust, drill wound plus 5x5 cm bark removed
From the text: Fourteen plantation grown trees on Phu Quoc Island were used to test different treatments. Each tree received 8 wounds that were spiraled up the main trunk of the tree separated by approximately 20 cm. A range of different types of wounds and treatments as well as controls were made on each tree. […] Trees were harvested after 15 months and taken to the laboratory for analyses.
Treatments Included: • 1. A surface wound approximately 5×5 cm was made by cutting the bark and removing the bark tissue to expose the xylem. No drill hole was made. • 3. A ⅝ inch drill wound was made approximately 5 cm into the xylem and a 5×5 cm section of the bark removed around the drill hole and approximately 0.3 g sterile Aquilaria sawdust added to the drill wound. • 4. Same as #3 but with approximately 0.3 g of a 1:1 ratio of ferrous chloride and sterile Aquilaria sawdust added to the drill wound. • 5. Same as #3 with approximately 0.3 g of a 1:2 ratio of NaCl and sterile Aquilaria sawdust added to the drill wound. • 6. Same as #3 but with approximately 0.3 g of a 1:4 ratio of Difco yeast extract and sterile Aquilaria sawdust. • 7. Same as #3 but with approximately 0.3 g of a 1:1 ratio of sodium bisulfite and sterile Aquilaria sawdust. • 8. Same as #3 but with approximately 0.3 g of a 1:2:4 ratio of Difco nutrient broth: Difco malt extract: sterile Aquilaria sawdust.
After 15 months, 8 trees were harvested and brought to the laboratory for analyses. The area of discoloration and resin formation was determined by splitting the tree through the wounded region and area affected measured using an image analyzer. Area (cm^2) was determined for all wounds in the longitudinal plane. Each value is a mean of 8 wounds.

[3] = test system: Aquilaria trees; experiment: Scribed drill wounds with Basidiomycota cultures or chemicals in sawdust, Kon Tum and Nui Cam (Example 9); details: for effect on area of discoloration and agarwood resin (in words): Example 9 conclusion, sodium bisulfite 1:4, salicylic acid 1:2, ferrous chloride 1:4 in sawdust; for Area of discoloration: after 15 months, mean of two trees, chemicals approx 0.5 g in sterile Aquilaria sawdust
From the text: Young trees growing at two sites, in home gardens and on agricultural land (Kon Tum, Vietnam and Nui Cam, Vietnam), received 8 wounds per tree. Drill wounds ⅝ inch diameter were drilled approximately 5 cm into the main trunk of each tree in a spiral fashion separated by approximately 20 cm. All drill wounds were scribed to remove a 5×5 cm area of bark around the wound. Fungal treatments consisted of three different types of Basidiomycota obtained from Aquilaria trees in Vietnam. These isolates were not identified to genus but culture morphology indicated they were different genera. Cultures were grown on sterile rice supplemented with malt extract. Cultures were grown for three weeks before inoculation.
Treatments Included: • 1. Control wound receiving sterile rice • 2. Fungal culture 97-14-5 • 3. Fungal culture 97-13-7 • 4. Fungal culture 97-11-25 • 5. Control wound receiving 5 g sterile Aquilaria sawdust • 6. Approximately 0.5 g of a 1:4 ratio of sodium bisulfite and sterile Aquilaria sawdust • 7. Approximately 0.5 g of a 1:2 ratio of salicylic acid in sterile Aquilaria sawdust • 8. Approximately 0.5 g of a 1:4 ratio of ferrous chloride in sterile Aquilaria sawdust
After 15 months two trees were harvested from each location and brought to the laboratory for analyses. The mean area for each type of wound was calculated.

Row | SMILES | effect on area of discoloration (in words) [1] | Area of discoloration ([1]; after 12 months) | Area of discoloration ([1]; after 18 months) | Area of discoloration ([1]; after 21 months) | effect on area of discoloration and agarwood resin (in words) [2] | Area of discoloration/resin [2] [cm^2] | effect on area of discoloration and agarwood resin (in words) [3] | Area of discoloration ([3]; Location Kon Tum) [cm^2] | Area of discoloration ([3]; Location Nui Cam) [cm^2] | microscopic observations of cells around treated wounds [1] | agarwood induction versus control wounds (in words) [1]
1 | O=C[C@H](O)[C@@H](O)[C@H](O[C@@H]1O[C@H](CO)[C@@H](O)[C@H](O)[C@H]1O)[C@H](O)CO [Cellobiose] | do not increase the area of discoloration | 9.9 | 20.3 | 7.4 |  |  |  |  |  |  | 
2 | [Cl][Fe][Cl] [Ferrous chloride, ferrous chloride] |  |  |  |  | increase the area of discoloration within the tree and the amount of agarwood resin formed | 112.5 | did not produce large areas of discoloration | 18.4 | 23.3 |  | 
3 | O=CO [Formic acid] |  | 28.5 | 18.6 | 31.8 |  |  |  |  |  | react extensively and phloem cells are filled with resin | induce greater amounts of agarwood than the control wounds
4 | O=C([O-])[O-].[Ca+2] [Lime, calcium carbonate] | do not increase the area of discoloration | 10.0 | 18.7 | 9.7 |  |  |  |  |  |  | 
5 | [Cl-].[Na+] [NaCl, Sodium chloride] |  | 49.3 | 44.7 | 36.4 | increase the area of discoloration within the tree and the amount of agarwood resin formed | 48.1 |  |  |  | react extensively and phloem cells are filled with resin | induce greater amounts of agarwood than the control wounds
6 | O=C(O)c1ccccc1O [Salicylic acid, salicylic acid] |  |  |  |  |  |  | did not produce large areas of discoloration | 16.9 | 25.5 |  | 
7 | O=S([O-])O.[Na+] [Sodium bisulfite, sodium bisulfite] |  |  |  |  | increase the area of discoloration within the tree and the amount of agarwood resin formed | 182.0 | reduced amount of discoloration and agarwood resin | 52.3 | 56.9 |  | 
